Test results reported in US10689362B2, “Quinoxaline compounds as type III receptor tyrosine kinase inhibitors” (Development Center for Biotechnology, priority 2016, dated 2020).

How the values were obtained:
CSF-1R kinase = CSF-1R kinase (Homo sapiens (Human), UniProt P07333); experiment: CSF-1R kinase assay (AlphaScreen); type: biochemical; settings: class symbol
Method: Inhibition of CSF-1R kinase activity by a test compound disclosed herein was estimated by AlphaScreen (PerkinElmer). […] Reactions were incubated at 30° C. for 45 min and stopped by adding 5 μL of 50 mM EDTA. Analysis of resulting product using an AlphaScreen kit, and counted with Enspire Alpha (PerkinElmer). […] The IC50 values of quinoxaline compounds of this invention against CSF-1R kinase were determined using the GraphPad Prism 5 software.

c-KIT kinase = c-KIT kinase (Homo sapiens (Human), UniProt P10721); experiment: c-KIT kinase assay (radiometric); type: biochemical; settings: class symbol
In short: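 Recombinant c-Kit (20 ng) with 2 μg Poly-(Glu4:Tyr1) in MOPS pH 7.0 buffer with MgCl2/MnCl2, 10 μM ATP plus [^33P]-ATP, 4% DMSO final, 60 min at 30° C. Stopped with phosphoric acid, filter-captured and scintillation counted; IC50 from curve fit.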

FLT3 kinase = FLT3 kinase (Homo sapiens (Human), UniProt P36888); experiment: FLT3 kinase assay (radiometric); type: biochemical; settings: bound
In short: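 Recombinant FLT3 (5 ng) phosphorylating poly(Glu4:Tyr1) (2 μg) with 10 μM ATP plus [^33P]-ATP in MOPS pH 7.0 buffer, 4% DMSO final, 60 min at 30° C. Reaction stopped with phosphoric acid, filter-captured and scintillation-counted; IC50 derived from dose-response.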

PDGFRβ kinase = PDGFRβ kinase (Homo sapiens (Human), UniProt P09619); experiment: PDGFRβ kinase assay (radiometric); type: biochemical
In short: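 Radiometric assay: recombinant PDGFRβ with poly(Glu4:Tyr1) in MOPS pH 7.0 buffer containing Mg2+/Mn2+, 10 μM ATP plus [33P]-ATP, and compound at 4% DMSO final. Incubated 60 min at 30° C, stopped with phosphoric acid, filter-captured and scintillation-counted. IC50 from curve fitting.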

[1] = system: CSF-1-dependent M-NFS-60 mouse myeloid leukemia cell; experiment: M-NFS-60 cell proliferation assay (CellTiter-96); type: cell-based; settings: Cytotoxicity, M-NFS-60 cells, 72 hours
In short: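 CSF-1-dependent M-NFS-60 cells seeded at 2000 cells/well, settled overnight at 37 °C, 5% CO2, then exposed to increasing compound concentrations for 72 h. Viability read by CellTiter 96 AQueous One reagent (4 h) at 490 nm absorbance.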

[2] = system: MV4-11 human acute myeloid leukemia cell with FLT3-ITD mutation; experiment: MV4-11 cell proliferation assay (CellTiter-96); type: cell-based; settings: Cytotoxicity, MV4-11 cells, 72 hours
In short: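 MV4-11 cells (FLT3-ITD, FLT3-dependent growth) seeded at 6500 cells/well, incubated overnight at 37° C., 5% CO2, then exposed to increasing compound concentrations for 72 hours. Viability read by CellTiter96 AQueous One reagent (4 hours), absorbance at 490 nm.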

[3] = system: Kasumi-1 human acute myeloid leukemia cell with c-KIT N822K activating mutation; experiment: Kasumi-1 cell proliferation assay (CellTiter-96); type: cell-based; settings: Cytotoxicity, Kasumi-1 cells, 72 hours
In short: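 Kasumi-1 cells, seeded at 64000 cells/well and incubated overnight at 37 °C, were exposed to increasing compound concentrations for 72 h. Viability was measured by CellTiter96 AQueous One reagent (4 h) and absorbance at 490 nm.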

[4] = system: THP-1 human acute monocytic leukemia cell harboring NRAS G12D mutation; experiment: THP-1 cell proliferation assay (counter screen, CellTiter-96); type: cell-based; settings: Cytotoxicity, THP-1 cells (counter screen), 72 hours
In short: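 THP-1 cells, RTK-independent owing to NRAS G12D, seeded at 5000/well, incubated overnight at 37 °C/5% CO2, then exposed to increasing compound concentrations for 72 h. CellTiter96 AQueous One reagent added for 4 h; viability from absorbance at 490 nm.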

[5] = system: osteoclast precursors (osteoclast differentiation); experiment: Osteoclast tartrate-resistant acid phosphatase assay; type: cell-based; settings: 168 h, at 1 μM treatment, 7 days, RANKL and M-CSF, read-out: inhibition activity against osteoclast differentiation
Method: A serial dilution of test compound was dispensed into a 96-well black clear bottom plate. Compound was diluted by the addition of DMEM media supplemented with 10% characterized fetal bovine serum. Diluted compound was transferred to a 96-well black clear bottom plate. Three thousand osteoclast precursors (Lonza, Walkersville, Md.) were added per well in growth medium containing Receptor Activator of Nuclear Factor Kappa-beta ligand (RANKL) and M-CSF. […] At the end of the incubation period, 50 μL of supernatant from each well was transferred to a clear 96-well plate. Tartrate-resistant acid phosphatase activity in the supernatant samples was determined using an acid phosphatase assay kit (Sigma, St. Louis, Mo.). Absorbance was measured at 550 nm using a plate reader. […] The Inhibition activity against osteoclast differentiation for each compound at 1 μM treatment in duplicate was measured.

Sequence of CSF-1R kinase (P07333 20-972): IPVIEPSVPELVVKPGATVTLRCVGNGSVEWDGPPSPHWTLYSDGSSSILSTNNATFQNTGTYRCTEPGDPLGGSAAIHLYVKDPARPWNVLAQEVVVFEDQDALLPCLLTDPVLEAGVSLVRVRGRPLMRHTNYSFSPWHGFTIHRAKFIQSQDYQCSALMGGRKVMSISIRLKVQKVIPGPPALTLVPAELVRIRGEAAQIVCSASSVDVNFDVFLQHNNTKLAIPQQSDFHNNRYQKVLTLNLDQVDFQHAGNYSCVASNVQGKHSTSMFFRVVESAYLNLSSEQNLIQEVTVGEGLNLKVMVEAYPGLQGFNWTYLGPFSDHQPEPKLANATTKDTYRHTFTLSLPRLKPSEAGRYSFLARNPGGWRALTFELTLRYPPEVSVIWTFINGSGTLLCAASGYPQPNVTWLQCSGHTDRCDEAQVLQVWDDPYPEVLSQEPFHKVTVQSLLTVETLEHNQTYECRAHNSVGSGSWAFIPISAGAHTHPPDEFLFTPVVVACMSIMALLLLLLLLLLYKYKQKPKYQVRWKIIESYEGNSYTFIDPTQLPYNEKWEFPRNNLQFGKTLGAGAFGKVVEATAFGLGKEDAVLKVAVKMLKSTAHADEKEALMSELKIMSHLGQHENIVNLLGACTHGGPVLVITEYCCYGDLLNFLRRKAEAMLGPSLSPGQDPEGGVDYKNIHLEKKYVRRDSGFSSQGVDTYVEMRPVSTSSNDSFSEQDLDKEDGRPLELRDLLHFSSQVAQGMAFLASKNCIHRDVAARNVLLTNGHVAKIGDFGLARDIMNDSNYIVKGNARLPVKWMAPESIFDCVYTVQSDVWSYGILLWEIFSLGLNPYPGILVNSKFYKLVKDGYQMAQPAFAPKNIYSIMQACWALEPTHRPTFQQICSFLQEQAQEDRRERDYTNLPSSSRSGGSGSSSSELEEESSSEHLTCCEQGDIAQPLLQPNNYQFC
Sequence of FLT3 kinase (P36888 27-993): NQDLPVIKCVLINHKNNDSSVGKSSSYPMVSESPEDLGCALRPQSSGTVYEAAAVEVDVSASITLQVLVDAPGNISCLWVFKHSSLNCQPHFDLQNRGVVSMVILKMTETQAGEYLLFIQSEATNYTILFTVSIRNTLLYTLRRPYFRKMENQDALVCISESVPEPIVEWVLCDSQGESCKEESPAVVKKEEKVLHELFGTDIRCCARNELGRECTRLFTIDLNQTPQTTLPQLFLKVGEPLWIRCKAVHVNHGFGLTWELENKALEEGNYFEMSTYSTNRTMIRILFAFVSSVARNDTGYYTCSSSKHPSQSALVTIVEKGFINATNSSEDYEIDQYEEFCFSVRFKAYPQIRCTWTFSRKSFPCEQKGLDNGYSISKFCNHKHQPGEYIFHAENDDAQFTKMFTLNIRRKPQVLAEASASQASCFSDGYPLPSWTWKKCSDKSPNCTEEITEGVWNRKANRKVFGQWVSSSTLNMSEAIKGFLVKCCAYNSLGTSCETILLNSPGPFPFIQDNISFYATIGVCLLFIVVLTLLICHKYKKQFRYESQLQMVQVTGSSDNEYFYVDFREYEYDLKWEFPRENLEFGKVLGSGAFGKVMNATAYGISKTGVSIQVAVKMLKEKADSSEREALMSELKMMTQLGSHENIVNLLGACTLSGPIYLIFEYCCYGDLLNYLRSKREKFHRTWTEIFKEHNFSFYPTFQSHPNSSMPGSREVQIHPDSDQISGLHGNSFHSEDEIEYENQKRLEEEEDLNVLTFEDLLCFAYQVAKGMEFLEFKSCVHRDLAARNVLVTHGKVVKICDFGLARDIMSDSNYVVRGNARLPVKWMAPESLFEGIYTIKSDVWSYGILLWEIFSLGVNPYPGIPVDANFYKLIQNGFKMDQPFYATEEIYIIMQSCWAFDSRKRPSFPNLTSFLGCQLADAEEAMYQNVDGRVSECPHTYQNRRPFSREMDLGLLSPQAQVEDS
Sequence of PDGFRβ kinase (P09619 33-1106): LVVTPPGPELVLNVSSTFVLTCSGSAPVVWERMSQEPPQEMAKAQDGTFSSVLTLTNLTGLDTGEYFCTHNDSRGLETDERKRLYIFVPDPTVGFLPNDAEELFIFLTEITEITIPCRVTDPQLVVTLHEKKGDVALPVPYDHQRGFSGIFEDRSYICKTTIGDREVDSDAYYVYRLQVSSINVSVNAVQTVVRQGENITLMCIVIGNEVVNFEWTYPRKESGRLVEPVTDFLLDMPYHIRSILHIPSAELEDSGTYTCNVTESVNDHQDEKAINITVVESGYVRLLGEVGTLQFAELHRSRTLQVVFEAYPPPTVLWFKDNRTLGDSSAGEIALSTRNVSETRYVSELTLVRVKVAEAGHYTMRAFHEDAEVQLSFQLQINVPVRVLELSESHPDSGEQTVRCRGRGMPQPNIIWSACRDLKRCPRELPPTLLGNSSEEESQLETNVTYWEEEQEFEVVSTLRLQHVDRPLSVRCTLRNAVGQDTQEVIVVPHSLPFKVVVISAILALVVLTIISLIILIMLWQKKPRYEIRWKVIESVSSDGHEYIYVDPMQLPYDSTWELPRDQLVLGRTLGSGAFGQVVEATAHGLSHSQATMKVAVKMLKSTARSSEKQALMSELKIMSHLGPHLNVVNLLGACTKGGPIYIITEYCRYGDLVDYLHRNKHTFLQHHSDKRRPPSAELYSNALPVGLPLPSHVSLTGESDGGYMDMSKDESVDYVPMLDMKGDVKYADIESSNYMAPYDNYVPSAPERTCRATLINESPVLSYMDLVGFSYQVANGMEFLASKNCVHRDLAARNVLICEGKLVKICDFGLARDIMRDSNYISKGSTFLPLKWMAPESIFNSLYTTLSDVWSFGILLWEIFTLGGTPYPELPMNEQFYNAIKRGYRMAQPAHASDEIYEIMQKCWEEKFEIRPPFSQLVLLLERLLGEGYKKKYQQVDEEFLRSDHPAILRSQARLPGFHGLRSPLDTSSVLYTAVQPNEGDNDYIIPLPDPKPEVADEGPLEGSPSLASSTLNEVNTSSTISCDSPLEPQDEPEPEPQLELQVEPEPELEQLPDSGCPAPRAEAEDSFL
Sequence of c-KIT kinase (P10721 26-976): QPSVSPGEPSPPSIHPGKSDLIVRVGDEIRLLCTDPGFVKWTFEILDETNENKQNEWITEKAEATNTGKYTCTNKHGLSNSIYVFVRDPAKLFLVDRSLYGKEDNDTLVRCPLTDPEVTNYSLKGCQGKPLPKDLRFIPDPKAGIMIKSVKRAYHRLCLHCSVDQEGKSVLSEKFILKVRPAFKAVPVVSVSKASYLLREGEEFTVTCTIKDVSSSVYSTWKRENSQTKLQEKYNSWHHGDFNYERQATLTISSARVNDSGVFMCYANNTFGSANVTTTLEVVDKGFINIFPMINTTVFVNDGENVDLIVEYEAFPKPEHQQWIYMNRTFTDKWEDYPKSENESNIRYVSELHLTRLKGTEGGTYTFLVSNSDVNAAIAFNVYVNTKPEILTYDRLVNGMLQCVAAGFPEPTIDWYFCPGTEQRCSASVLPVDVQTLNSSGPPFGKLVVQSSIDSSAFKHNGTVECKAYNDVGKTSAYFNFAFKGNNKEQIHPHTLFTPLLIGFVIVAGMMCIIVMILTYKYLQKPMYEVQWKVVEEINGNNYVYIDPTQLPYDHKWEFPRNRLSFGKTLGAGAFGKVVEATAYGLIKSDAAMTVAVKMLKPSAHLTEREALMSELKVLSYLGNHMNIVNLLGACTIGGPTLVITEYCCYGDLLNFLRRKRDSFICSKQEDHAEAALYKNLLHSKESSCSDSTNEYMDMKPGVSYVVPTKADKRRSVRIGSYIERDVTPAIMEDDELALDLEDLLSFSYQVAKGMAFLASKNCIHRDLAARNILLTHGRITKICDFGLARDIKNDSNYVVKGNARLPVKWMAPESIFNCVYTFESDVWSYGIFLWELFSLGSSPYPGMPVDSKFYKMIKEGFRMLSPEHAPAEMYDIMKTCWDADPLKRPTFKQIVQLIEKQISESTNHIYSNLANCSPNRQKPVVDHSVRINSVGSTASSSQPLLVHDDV

Structure (SMILES) | IC50 (CSF-1R kinase) | IC50 (c-KIT kinase) | IC50 (FLT3 kinase) | IC50 (PDGFRβ kinase; bound) | IC50 (PDGFRβ kinase; class symbol) | IC50 [1] | IC50 [2] | IC50 [3] | IC50 [4] | inhibition at 1 µM [5]
COc1ccc(COc2ccc(Nc3ccc4ncc(N5CCC(OC(C)=O)CC5)nc4c3C#N)cc2OC)cc1 [Example 68, 1-(8-cyano-7-((3-methoxy-4-((4-methoxybenzyl)oxy)phenyl)amino)quinoxalin-2-yl)piperidin-4-yl acetate] | < 100 nM | < 100 nM | > 1000 nM | > 1000 nM | – | < 300 nM | 1 to 10 µM | < 300 nM | > 10 µM | > 50%
COCCN1CCN(c2cnc3ccc(Nc4ccc(OCc5ccc(OC)nc5)c(OC)c4)c(C#N)c3n2)CC1 [Example 97, 6-((3-methoxy-4-((6-methoxypyridin-3-yl)methoxy)phenyl)amino)-3-(4-(2-methoxyethyl)piperazin-1-yl)quinoxaline-5-carbonitrile] | < 100 nM | 100 to 300 nM | > 1000 nM | > 1000 nM | – | < 300 nM | 1 to 10 µM | 300 to 1000 nM | > 10 µM | > 50%
COc1ccc(COc2ccc(Nc3ccc4ncc(N(C)C)nc4c3C#N)cc2OC)cc1 [Example 7, 3-(dimethylamino)-6-((3-methoxy-4-((4-methoxybenzyl)oxy)phenyl)amino)quinoxaline-5-carbonitrile] | < 100 nM | < 100 nM | > 1000 nM | > 1000 nM | – | < 300 nM | > 10 µM | < 300 nM | > 10 µM | > 50%
COc1cc(Nc2ccc3ncc(N4CCC(N(C)C)CC4)nc3c2C#N)ccc1OCc1cccc(F)c1 [Example 89, 3-(4-(dimethylamino)piperidin-1-yl)-6-((4-((3-fluorobenzyl)oxy)-3-methoxyphenyl)amino)quinoxaline-5-carbonitrile] | < 100 nM | < 100 nM | > 1000 nM | > 1000 nM | – | < 300 nM | 1 to 10 µM | 1000 to 10000 nM | 1 to 10 µM | > 50%
COc1cc(Nc2ccc3ncc(N4CCOCC4)nc3c2C#N)ccc1OCc1ccc(C(F)F)nc1 [Example 111, 6-((4-((6-(difluoromethyl)pyridin-3-yl)methoxy)-3-methoxyphenyl)amino)-3-morpholinoquinoxaline-5-carbonitrile] | < 100 nM | 100 to 300 nM | > 1000 nM | > 1000 nM | – | < 300 nM | 1 to 10 µM | 300 to 1000 nM | > 10 µM | > 50%

Second part, led by results:

IC50 (CSF-1R kinase) | IC50 (c-KIT kinase) | IC50 (FLT3 kinase) | IC50 (PDGFRβ kinase; bound) | IC50 (PDGFRβ kinase; class symbol) | Structure (SMILES) | IC50 [1] | IC50 [2] | IC50 [3] | IC50 [4] | inhibition at 1 µM [5]
< 100 nM | 300 to 1000 nM | > 1000 nM | > 1000 nM | – | COc1ccc(COc2ccc(Nc3ccc4ncc(NCCN5CCOCC5)nc4c3C#N)cc2OC)cc1 [Example 76, 6-((3-methoxy-4-((4-methoxybenzyl)oxy)phenyl)amino)-3-((2-morpholinoethyl)amino)quinoxaline-5-carbonitrile] | < 300 nM | 1 to 10 µM | 1000 to 10000 nM | > 10 µM | > 50%
< 100 nM | < 100 nM | > 1000 nM | – | 300 to 1000 nM | COc1ccc(COc2ccc(Nc3ccc4ncc(N5CCCC5)nc4c3C#N)cc2OC)cc1 [Example 62, 6-((3-methoxy-4-((4-methoxybenzyl)oxy)phenyl)amino)-3-(pyrrolidin-1-yl)quinoxaline-5-carbonitrile] | < 300 nM | > 10 µM | < 300 nM | > 10 µM | > 50%
< 100 nM | < 100 nM | > 1000 nM | > 1000 nM | – | COc1cc(Nc2ccc3ncc(N4CCOCC4)nc3c2C#N)ccc1OCc1ccc(C)s1 [Example 124, 6-((3-methoxy-4-((5-methylthiophen-2-yl)methoxy)phenyl)amino)-3-morpholinoquinoxaline-5-carbonitrile] | < 300 nM | 1 to 10 µM | 300 to 1000 nM | 1 to 10 µM | > 50%
